Data from ChEMBL document CHEMBL1201862, “PubChem BioAssay data set” (2004).
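A five-concentration, 48-hour dose response in 96-well plates underlies each endpoint, interpolated linearly between surrounding concentrations. The concentration for 50% growth inhibition is given as GI50.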 Activity calls are given as the source filed them. Cut-off read from the data, not from the text of the source: active = GI50 up to about 1.1 µM and inactive = higher.

Key:
Assay in all cases: NCI anticancer screen, dose series, 48 h
ACHN = test system: ACHN
NCI-H226 = test system: NCI-H226
KM12 = test system: KM12
NCI-H23 = test system: NCI-H23
Malme-3M = test system: Malme-3M
MCF7 = test system: MCF7
SF-295 = test system: SF-295
EKVX = test system: EKVX
LOX IMVI = test system: LOX IMVI
SR = test system: SR
MDA-MB-231 = test system: MDA-MB-231
SK-MEL-28 = test system: SK-MEL-28
K562 = test system: K562
SN12C = test system: SN12C
IGROV-1 = test system: IGROV-1
HOP-62 = test system: HOP-62
CCRF-CEM = test system: CCRF-CEM
SK-MEL-5 = test system: SK-MEL-5
OVCAR-5 = test system: OVCAR-5
HCC 2998 = test system: HCC 2998

Measured: GI50

Cc1nc2ccccc2c(=O)n1NC(=O)Cc1ccccc1
inactive: ACHN > 100 µM | NCI-H226 > 100 µM | KM12 > 100 µM | NCI-H23 > 100 µM | Malme-3M > 100 µM | MCF7 > 100 µM | SF-295 > 100 µM | EKVX > 100 µM | LOX IMVI > 100 µM | SR > 100 µM | MDA-MB-231 > 100 µM | SK-MEL-28 > 100 µM | K562 > 100 µM | SN12C > 100 µM | IGROV-1 > 100 µM | HOP-62 > 100 µM | CCRF-CEM > 100 µM | SK-MEL-5 > 100 µM | OVCAR-5 > 100 µM | HCC 2998 > 100 µM

Cc1cc(C)nc(NS(=O)(=O)c2ccc(NC(=O)c3ccc4nc5ccccc5c(Nc5ccc(S(N)(=O)=O)cc5)c4c3)cc2)n1
inactive: ACHN > 100 µM | NCI-H226 > 100 µM | KM12 65.8 µM | NCI-H23 > 100 µM | Malme-3M 93.3 µM | MCF7 49.2 µM | SF-295 > 100 µM | EKVX > 100 µM | LOX IMVI 45.6 µM | SR 40.1 µM | MDA-MB-231 94.2 µM | SK-MEL-28 86.7 µM | K562 40 µM | SN12C > 100 µM | IGROV-1 > 100 µM | HOP-62 > 100 µM | CCRF-CEM 28.2 µM | SK-MEL-5 > 100 µM | OVCAR-5 > 100 µM | HCC 2998 > 100 µM

CC1(C)CC(=O)c2c(nc3c4c([nH]c(-c5ccc(Br)cc5)c24)CC(C)(C)C3)C1
inactive: ACHN 42.7 µM | NCI-H226 40.8 µM | KM12 33.4 µM | NCI-H23 52.1 µM | Malme-3M 49.1 µM | MCF7 33 µM | SF-295 21.3 µM | EKVX 50.2 µM | LOX IMVI 30.2 µM | SR 8.65 µM | MDA-MB-231 44 µM | SK-MEL-28 98.9 µM | K562 18.2 µM | SN12C 98.6 µM | HOP-62 > 100 µM | CCRF-CEM 16.9 µM | SK-MEL-5 26.8 µM | OVCAR-5 84.9 µM | HCC 2998 19.2 µM
